Assay results from patent US8268823B2, “Medical use of triazine derivatives” (University of Greenwich, priority 2006, dated 2012).
“And” between values parts separate entries of the source, which are not always exact repeats. Identical values can stand only once. Like-named read-outs stand apart in the source and are kept apart here.

Key:
[1] = target: T1, DiHydroFolate Reductase (DHFR) (Rattus norvegicus, UniProt Q920D2); test: inhibition of binding of [3H]methotrexate to rat liver homogenate supernatant; conditions: for IC50: rat liver supernatant; for inhibition at 10 µM / inhibition at 99 µM: read-out: [3H]methotrexate binding Inhibition (% @ assay conc'n)
T1 construct: from tissue; host or cells: rat liver homogenate supernatant (47,500 x g)
T1 sequence (Q920D2 1-187): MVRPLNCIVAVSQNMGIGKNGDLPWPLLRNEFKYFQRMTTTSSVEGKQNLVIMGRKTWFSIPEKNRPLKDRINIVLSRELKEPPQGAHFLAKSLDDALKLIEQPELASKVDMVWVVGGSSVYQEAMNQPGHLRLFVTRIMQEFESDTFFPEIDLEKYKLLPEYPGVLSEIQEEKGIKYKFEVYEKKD
Description: All steps were carried out at 4° (or on ice). Freshly dissected rat liver was dissected into 0.25M ice-cold Sucrose and subsequently homogenised (U-turrax) in 50 mM pH 6.0 phosphate buffer (10 ml/g tissue) containing 15 mM Dithiothreitol. The resulting homogenate was centrifuged @ 47,500×g for 20 min and supernatant (filtered through cotton wool to remove fatty lumps) stored @-80° before use (Rothenberg et al).
The binding reaction was stopped by the addition of 50 μl of a charcoal suspension (consisting of charcoal, Bovine Serum Albumin and Dextran present in a weight ratio of 100:4:1 suspended in 50 mM pH 6.0 phosphate buffer. Samples were vortexed, allowed to stand for 2 minutes and charcoal was precipitated by microcentrifugation @ full speed for 5 min. Aliquots of clear supernatant were transferred to counting vials containing liquid scintillant for measurement of radioactivity using Liquid Scintillation Spectroscopy.
Percentage inhibition values were calculated by comparison to this value.
(§1) Data are presented as mean±sem of number of experiments indicated in brackets.

sodium channel [2] = format: binding, rat
hERG potassium channel [3] = target: T2, hERG potassium channel (Homo sapiens, UniProt Q12809); test: in vitro; conditions: for selectivity ratio: hERG / [3H]BTX-B selectivity, ratio of extrapolated hERG IC50 to [3H]BTX-B IC50 (synaptosomes)
hERG potassium channel [4] = target: T2, hERG potassium channel; test: inhibition of binding of [3H]astemizole to cell membranes expressing hERG; conditions: for selectivity ratio: human, cell membranes expressing hERG, probe [3H]astemizole
sodium channel [5] = test: veratrine-evoked uptake of [14C]guanidine into rat forebrain synaptosomes ([14C]guanidine flux); format: biochemical
Description: The screening strategy is designed to select compounds with appropriate sodium channel blocking activity and low side effect liability. To this end all compounds are processed through the primary sodium channel assay (veratrine-evoked uptake of [^14C]guanidine into rat forebrain synaptosomes) and IC50 values computed from generated concentration-effect curves.
Synaptosomes (heavy and light mitochondrial fraction containing synaptosomes) were prepared by transferring the forebrain (of known wet weight) to a glass Potter vessel to which 9 volumes ice-cold 0.25M sucrose had been added and homogenising, using a teflon pestle, by 8 ‘up and down strokes’ of a Braun Potter S motor driven homogeniser set to 900 rpm. The resulting homogenate was centrifuged at 1036×g at 4° for 10 min and the supernatant collected. The remaining pellet was resuspended, as above, in fresh ice-cold 0.25M sucrose and the centrifugation step repeated. The supernatant fractions were pooled and centrifuged at 40,000×g (average) at 4° for 15 min and the resulting pellet resuspended in the appropriate assay buffer at a concentration of 20-25 mg wet weight per ml appropriate assay buffer.
Both assays were carried out using 14 ml polypropylene test tubes to which a range of concentrations of the compounds under test were added.
Compounds under test were pre-incubated for 10 min at 30° in incubation buffer (50 mM pH 7.4 HEPES (adjusted to pH 7.4 with Tris base), 130 mM choline chloride, 5.5 mM D-glucose, 0.8 mm MgSO4 and 5 mM KCl) containing 7.5 mg original wet weight of tissue and 100 μg veratrine HCl in a final volume of 0.5 ml. […] A further 2×5 ml of ice-cold wash buffer was added to each tube and the vacuum filtration step repeated. The GF/C glass fibre filters were transferred to minivials and 4 ml Picofluor^40 liquid scintillant added using a Brandel™ deposit/dispense system. Radioactivity was measured using a Beckman Liquid Scintillation Counter.
as §1

[6] = system: 0.4 mm slices of rat hippocampus; test: hippocampal slice assay: ATP after iodoacetate metabolic insult; conditions: for Emax: read-out: Max Protection (% v TTX)
[7] = Table 4, tissue prep'n Synaptosomes, read-out: [3H]BTX-B binding Mean (IC50: μM)
[8] = Table 5, Synaptosome data, read-out: [3H]BTX-B IC50
[9] = Table 3, rat forebrain synaptosomes, read-out: [14C]guanidine flux Mean (IC50: μM)
[10] = Table 5, read-out: [14C]guanidine flux IC50
[11] = Rattus norvegicus, read-out: hippocampal slice EC50 (μM)
[12] = Table 4, tissue prep'n Homogenate, read-out: [3H]BTX-B binding Mean (IC50: μM)

T2 sequence (Q12809 whole entry): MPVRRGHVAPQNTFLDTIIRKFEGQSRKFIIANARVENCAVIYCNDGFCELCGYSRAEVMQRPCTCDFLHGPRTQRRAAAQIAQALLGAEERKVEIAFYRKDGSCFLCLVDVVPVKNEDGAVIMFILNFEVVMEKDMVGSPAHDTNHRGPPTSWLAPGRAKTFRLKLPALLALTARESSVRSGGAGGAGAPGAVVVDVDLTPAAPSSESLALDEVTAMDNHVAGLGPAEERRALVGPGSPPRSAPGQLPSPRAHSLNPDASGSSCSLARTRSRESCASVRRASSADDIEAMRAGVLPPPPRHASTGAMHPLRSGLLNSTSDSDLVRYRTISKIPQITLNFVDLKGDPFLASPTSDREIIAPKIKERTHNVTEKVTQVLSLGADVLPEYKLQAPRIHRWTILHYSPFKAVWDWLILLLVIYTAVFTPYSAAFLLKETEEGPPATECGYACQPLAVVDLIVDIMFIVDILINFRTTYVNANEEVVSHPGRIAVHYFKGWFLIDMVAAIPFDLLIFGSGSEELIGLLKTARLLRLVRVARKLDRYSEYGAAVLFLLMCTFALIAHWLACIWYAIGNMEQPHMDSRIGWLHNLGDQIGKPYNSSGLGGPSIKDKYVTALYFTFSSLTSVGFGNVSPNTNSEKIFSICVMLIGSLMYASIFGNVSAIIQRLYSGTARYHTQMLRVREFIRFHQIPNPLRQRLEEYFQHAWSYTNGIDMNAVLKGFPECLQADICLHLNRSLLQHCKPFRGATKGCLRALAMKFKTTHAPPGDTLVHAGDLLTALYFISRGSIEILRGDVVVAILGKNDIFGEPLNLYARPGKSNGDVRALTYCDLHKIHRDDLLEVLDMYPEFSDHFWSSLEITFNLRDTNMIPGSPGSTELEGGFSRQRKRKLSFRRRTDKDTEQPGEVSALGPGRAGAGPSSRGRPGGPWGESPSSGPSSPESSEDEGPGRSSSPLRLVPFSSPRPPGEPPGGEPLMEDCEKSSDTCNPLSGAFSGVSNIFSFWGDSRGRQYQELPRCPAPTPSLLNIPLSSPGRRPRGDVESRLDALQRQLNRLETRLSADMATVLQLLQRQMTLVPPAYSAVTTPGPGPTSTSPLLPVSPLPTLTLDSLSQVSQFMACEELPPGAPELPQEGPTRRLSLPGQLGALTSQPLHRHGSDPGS

| Compound | IC50 [1] [µM] | IC50 (sodium channel [2]; [7]) [µM] | IC50 (sodium channel [2]; [8]) [µM] | inhibition at 10 µM (hERG potassium channel [3]) [%] | IC50 (hERG potassium channel [4]) [µM] | selectivity ratio (hERG potassium channel [4]) | IC50 (sodium channel [5]; [9]) [µM] | IC50 (sodium channel [5]; [10]) [µM] | inhibition at 10 µM ([1]; assay concentration 10 μM) [%] | inhibition at 99 µM ([1]; assay concentration 99 μM) [%] | further results |
| --- | --- | --- | --- | --- | --- | --- | --- | --- | --- | --- | --- |
| N=c1nc(N)c(-c2cccc(Cl)c2Cl)nn1Cc1ccsc1 [Example 29, 5(3)-Amino-6-(2,3-dichlorophenyl)-2,3(2,5)-dihydro-3(5)-imino-2-(3-thienylmethyl)-1,2,4-triazine] | > 250 | 2.2 | 2.2 | 83 | 2 | 0.3 | 7.3 | 7.3 | – | – | selectivity ratio (hERG potassium channel [3]): 0.9 |
| N=c1nc(N)c(-c2cccc(Cl)c2Cl)nn1Cc1ccoc1 [Example 30, 5(3)-Amino-6-(2,3-dichlorophenyl)-2,3(2,5)-dihydro-3(5)-imino-2-(3-furanylmethyl)-1,2,4-triazine] | > 250 | 2.6 | 2.6 | 65 | 5.4 | 1.2 | 4.4 | 4.4 | – | – | selectivity ratio (hERG potassium channel [3]): 2.1 |
| CCCCn1nc(-c2cccc(Cl)c2Cl)c(N)nc1=N [Example 8, 5(3)-Amino-6-(2,3-dichlorophenyl)-2,3(2,5)-dihydro-3(5)-imino-2-butyl-1,2,4-triazine] | – | 1.7 | – | – | – | – | 2.1 | – | -4 | -2 | Emax ([6]; Rattus norvegicus): 46%; EC50 [6, 11]: 10 µM |
| CCn1nc(-c2cccc(Cl)c2Cl)c(N)nc1=N [Example 3, 5(3)-Amino-6-(2,3-dichlorophenyl)-2,3(2,5)-dihydro-3(5)-imino-2-ethyl-1,2,4-triazine] | – | 3.7 | – | – | – | – | 6.4 | – | – | – | Max Protection (% v TTX) ([6]; compared with the effect of 1 μM TTX = 100% protection): 87.0 % v TTX; EC50 ([6]; read-out: EC50 (max set @ 100), data re-computed setting max @ 100%): 20 µM; EC50 ([6]; read-out: hippocampal slice EC50, protection of ATP after iodoacetate): 16 µM; [3H]methotrexate binding Inhibition (% @ assay conc'n) ([1]; assay concentration 10 μM): 0%; [3H]methotrexate binding Inhibition (% @ assay conc'n) ([1]; assay concentration 99 μM): 1%; IC50 (sodium channel [2]; [12]): 0.9 µM |
| Cn1nc(-c2cccc(Cl)c2F)c(N)nc1=N [Example 36, 5(3)-Amino-6-(3-chloro-2-fluorophenyl)-2,3(2,5)-dihydro-3(5)-imino-2-methyl-1,2,4-triazine] | > 300 | – | – | 33 | 20.3 | 0.2 | 129 | 129 | – | – | – |
| C=CCn1nc(-c2cccc(Cl)c2Cl)c(N)nc1=N [Example 10, 5(3)-Amino-6-(2,3-dichlorophenyl)-2,3(2,5)-dihydro-3(5)-imino-2-(prop-2-enyl)-1,2,4-triazine hemi-methanesulfonate] | – | – | – | 50 | 10 | 1.6 | 6.1 | 6.1 | -2 | -1 | – |
| COc1cccc(Cn2nc(-c3cccc(Cl)c3Cl)c(N)nc2=N)c1 [Example 18, 5(3)-Amino-6-(2,3-dichlorophenyl)-2,3(2,5)-dihydro-3(5)-imino-2-(3-methoxy)phenylmethyl-1,2,4-triazine] | – | – | – | 87 | 1.5 | 0.5 | 3.1 | 3.1 | -4 | -5 | – |
| CC(C)Cn1nc(-c2cccc(Cl)c2Cl)c(N)nc1=N [Example 7, 5(3)-Amino-6-(2,3-dichlorophenyl)-2,3(2,5)-dihydro-3(5)-imino-2-isobutyl-1,2,4-triazine methanesulfonate] | – | 1 | – | – | – | – | 2.9 | – | -4 | -2 | Emax ([6]; Rattus norvegicus): 47 ± 3%; EC50 [6, 11]: 1.3 µM |
| N=c1nc(N)c(-c2cccc(Cl)c2Cl)nn1Cc1cccc(F)c1F [Example 13, 5(3)-Amino-6-(2,3-dichlorophenyl)-2,3(2,5)-dihydro-3(5)-imino-2-(2,3-difluoro)phenylmethyl-1,2,4-triazine] | – | – | – | 84 | 1.9 | 0.7 | 2.8 | 2.8 | -3 | -4 | – |
| Nc1nnc(-c2cccc(Cl)c2Cl)c(N)n1 [Example 1, 5(3)-amino-6-(2,3-dichlorophenyl)-2,3(2,5)-dihydro-3(5)-imino-1,2,4-triazine, reference compound] | – | 76.6 | 76.6 | – | – | – | 209 | 209 | – | – | EC50 ([6]; Rattus norvegicus, read-out: EC50 (max set @ 100)): 33.1 µM; Emax ([6]; Rattus norvegicus): 79%; EC50 [6, 11]: 30.2 µM; IC50 (sodium channel [2]; Table 1, synaptosomes, mean ± sem (n), read-out: [3H]BTX-B binding (synaptosomes), mean IC50): 82.6 ± 2.3 µM; IC50 (sodium channel [2]; [12]): 97.9 µM; IC50 (sodium channel [5]; Table 1, mean ± sem (n), read-out: [14C] guanidine uptake (synaptosomes), mean IC50): 186 ± 26.5 µM; pIC50 (uptake of [14C]guanidine) (sodium channel [5]; Table 8, listed as Lamotrigine): 3.75 ± 0.13 and 3.68 ± 0.27; IC50 (sodium channel [5]; Table 8, listed as Lamotrigine, read-out: IC50 (μM) (uptake of [14C]guanidine)): 178 µM and 209 µM |
| N=c1nc(N)c(-c2cccc(Cl)c2Cl)nn1CC1CCNCC1 [Example 38, 4-[5(3)-Amino-6-(2,3-dichlorophenyl)-2,3(2,5)-dihydro-3(5)-imino-1,2,4-triazin-2-ylmethyl]piperidine dimethanesulfonate or 5(3)-Amino-6-(2,3-dichlorophenyl)-2,3(2,5)-dihydro-3(5)-imino-2-(piperidin-4-yl)methyl-1,2,4-triazine] | > 300 | – | – | 80 | 2.5 | 0.1 | 20.9 | 20.9 | – | – | – |
| N=c1nc(N)c(-c2cccc(Cl)c2Cl)nn1CCC(F)(F)F [Example 39, 5(3)-Amino-6-(2,3-dichlorophenyl)-2,3(2,5)-dihydro-3(5)-imino-2-(3,3,3-trifluoropropyl)-1,2,4-triazine] | > 300 | 1.6 | 1.6 | 40 | 15 | 3.8 | 3.9 | 3.9 | – | – | selectivity ratio (hERG potassium channel [3]): 9.4 |
